Data reported in ChEMBL document CHEMBL1201862, “PubChem BioAssay data set” (2004).
Calls of active or inactive are those of the source.

Columns and labels:
[1] = molecular target: T1, Replicative DNA helicase DnaB (Mycobacterium tuberculosis, UniProt P9WMR3); test: DnaB intein splicing inhibitors, dose response, biochemical, cell-free fluorescence (AID 449749); format: functional
T1 sequence (P9WMR3 whole entry): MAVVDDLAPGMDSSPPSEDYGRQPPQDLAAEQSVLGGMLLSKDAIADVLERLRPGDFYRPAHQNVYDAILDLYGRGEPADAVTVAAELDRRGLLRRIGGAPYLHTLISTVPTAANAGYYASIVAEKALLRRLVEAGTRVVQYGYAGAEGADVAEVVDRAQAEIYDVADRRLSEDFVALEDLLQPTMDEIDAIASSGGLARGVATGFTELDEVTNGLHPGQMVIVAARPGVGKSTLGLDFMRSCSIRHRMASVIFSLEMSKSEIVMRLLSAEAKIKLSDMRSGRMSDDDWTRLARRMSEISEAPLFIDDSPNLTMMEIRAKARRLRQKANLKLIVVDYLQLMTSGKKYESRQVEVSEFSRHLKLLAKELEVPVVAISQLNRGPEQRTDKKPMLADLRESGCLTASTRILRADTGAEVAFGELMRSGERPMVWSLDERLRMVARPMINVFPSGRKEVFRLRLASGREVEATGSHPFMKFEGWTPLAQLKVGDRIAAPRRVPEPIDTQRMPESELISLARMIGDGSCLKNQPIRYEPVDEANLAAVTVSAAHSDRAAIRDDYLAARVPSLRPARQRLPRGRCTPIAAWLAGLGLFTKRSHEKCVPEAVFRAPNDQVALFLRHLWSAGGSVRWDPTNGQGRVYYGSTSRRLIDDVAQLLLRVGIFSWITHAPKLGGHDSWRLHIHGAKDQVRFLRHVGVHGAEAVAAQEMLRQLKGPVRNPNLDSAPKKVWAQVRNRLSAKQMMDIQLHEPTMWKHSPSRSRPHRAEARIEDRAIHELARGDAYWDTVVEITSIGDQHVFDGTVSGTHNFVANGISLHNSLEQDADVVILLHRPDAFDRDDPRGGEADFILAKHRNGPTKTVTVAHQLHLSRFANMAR

[2] = Fluorescence-based cell-based high throughput dose response assay for inhibitors of the interaction of nucleotide-binding oligomerization domain containing 2 (NOD2) and the receptor-interacting serine-threonine kinase 2 (RIPK2).; format: functional; details: Homo sapiens
Protein RecA = molecular target: T2, Protein RecA (Mycobacterium tuberculosis, UniProt P9WHJ3); test: Fluorescence Cell-Free Homogeneous Dose Retest to Identify Inhibitors of RecA-Intein Splicing Activity. [Related pubchem assays (depositor defined):AID2097, AID2223, AID489010, AID492950]; format: functional
T2 sequence (P9WHJ3 whole entry): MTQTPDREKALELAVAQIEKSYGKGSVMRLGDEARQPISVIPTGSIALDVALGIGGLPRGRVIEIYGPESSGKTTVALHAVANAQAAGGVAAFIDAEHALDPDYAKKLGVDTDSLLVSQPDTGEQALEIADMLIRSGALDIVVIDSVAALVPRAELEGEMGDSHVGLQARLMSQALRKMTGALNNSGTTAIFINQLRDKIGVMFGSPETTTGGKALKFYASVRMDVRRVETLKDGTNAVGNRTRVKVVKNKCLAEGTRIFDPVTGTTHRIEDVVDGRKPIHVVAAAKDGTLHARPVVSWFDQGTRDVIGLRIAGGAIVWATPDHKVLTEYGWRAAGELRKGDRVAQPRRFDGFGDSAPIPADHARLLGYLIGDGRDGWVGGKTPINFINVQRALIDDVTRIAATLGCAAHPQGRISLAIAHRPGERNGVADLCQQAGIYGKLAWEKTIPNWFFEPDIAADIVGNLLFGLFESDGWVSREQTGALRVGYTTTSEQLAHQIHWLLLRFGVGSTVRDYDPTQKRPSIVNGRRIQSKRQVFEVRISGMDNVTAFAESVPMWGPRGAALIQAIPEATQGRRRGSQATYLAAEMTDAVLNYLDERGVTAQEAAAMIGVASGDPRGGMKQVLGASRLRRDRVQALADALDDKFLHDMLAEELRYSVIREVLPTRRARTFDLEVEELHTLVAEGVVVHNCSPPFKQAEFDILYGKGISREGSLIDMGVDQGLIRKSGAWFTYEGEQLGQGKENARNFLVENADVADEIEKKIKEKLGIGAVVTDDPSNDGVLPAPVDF

[3] = A cytotoxicity screen of small molecule inhibitors of the PhoP region in Salmonella typhi identified in the primary screen. [Related pubchem assays: 1850, 1864, 1985 ]; format: functional
[4] = molecular target: ADP-ribosylation factor GTPase-activating protein 1 (Rattus norvegicus, UniProt Q62848); test: Fluorescence polarization-based biochemical high throughput dose response screening assay to identify inhibitors of ADP-ribosylation factor GTPase activating protein 1 (ARFGAP1).; format: functional
Cytochrome P450 3A4 = Cytochrome P450 3A4 (Homo sapiens, UniProt P08684); details: Potency;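 further: confirmatory qHTS run detecting inhibitors and substrates of CYP3A4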
[5] = molecular target: T3, Sentrin-specific protease 8 (Homo sapiens, UniProt Q96LD8); format: functional
T3 sequence (Q96LD8 whole entry): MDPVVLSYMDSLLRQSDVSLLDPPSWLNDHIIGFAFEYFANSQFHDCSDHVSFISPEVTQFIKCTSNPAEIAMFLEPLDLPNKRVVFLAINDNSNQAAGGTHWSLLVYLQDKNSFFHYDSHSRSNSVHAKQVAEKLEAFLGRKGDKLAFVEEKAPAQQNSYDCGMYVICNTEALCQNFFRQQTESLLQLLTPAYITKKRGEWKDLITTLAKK

[6] = NIH3T3 cell viability loss – ATP luminescence, mouse fibroblasts, counter-screen, dose response (AID 2010); format: functional, cell-based;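 further: cells exposed to compound for about 90 hours before reading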
[7] = molecular target: T3, Sentrin-specific protease 8; format: functional; remark: listed apart in the source
[8] = Trypanosoma cruzi growth suppression in host cells – NIH3T3 host cells, beta-gal luminescence, confirmation (AID 2044); format: functional, cell-based;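 further: intracellular parasites grown in NIH/3T3 mouse fibroblasts as host cells; luminescent beta-galactosidase reporter signal from transgenic T. cruzi replicating inside host cells; inhibitors lower the luminescence signal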
[9] = viability of PTEN-deleted HCT116 cells – cell-based, HCT116 PTEN knockout, dose response (AID 1047); format: functional;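 further: HCT116 colon tumor cells with PTEN knocked out; cells exposed to compound for 60 hours before readout; potency for loss of cell viability measured by luminescence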
[10] = viability of HCT116 lacking mutant beta-catenin – cell-based, human colon tumor, dose response (AID 1045); format: functional;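 further: HCT116 colon tumor cells with beta catenin knocked out; cells exposed to compound for 60 hours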
[11] = general cell-killing toxicity readout – plate reader, dry powder samples, cytotoxicity control for PAX8 inhibitor project, dose response (AID 743021); format: functional, cell-based
[12] = molecular target: T4, Heat shock factor protein 1 (Mus musculus, UniProt P38532); test: decrease of HSF1-responsive luciferase luminescence – cell-based, NIH3T3, dose retest, confirmation (AID 2382); format: functional;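 further: NIH3T3 fibroblasts with HSF1-driven luciferase reporter stressed by proteasome inhibitor MG132; luminescence from HSF1-driven luciferase expression after 8 hours of MG132 stress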
T4 sequence (P38532 whole entry): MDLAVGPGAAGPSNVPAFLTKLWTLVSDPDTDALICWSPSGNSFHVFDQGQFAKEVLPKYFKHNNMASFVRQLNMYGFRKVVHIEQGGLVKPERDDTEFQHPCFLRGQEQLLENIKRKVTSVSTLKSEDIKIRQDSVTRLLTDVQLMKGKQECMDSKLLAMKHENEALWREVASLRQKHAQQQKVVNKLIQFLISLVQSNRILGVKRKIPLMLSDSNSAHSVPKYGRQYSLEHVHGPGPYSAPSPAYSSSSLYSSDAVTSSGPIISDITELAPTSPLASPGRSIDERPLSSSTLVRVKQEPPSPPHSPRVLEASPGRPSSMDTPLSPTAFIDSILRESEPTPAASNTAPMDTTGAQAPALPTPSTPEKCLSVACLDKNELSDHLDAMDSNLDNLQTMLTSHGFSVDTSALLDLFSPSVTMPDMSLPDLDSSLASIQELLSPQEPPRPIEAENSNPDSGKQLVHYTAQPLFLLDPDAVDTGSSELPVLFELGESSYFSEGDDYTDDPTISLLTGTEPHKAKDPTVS

Paired box protein Pax-8 = Paired box protein Pax-8 (Homo sapiens, UniProt Q06710); test: PAX8 transcriptional activity inhibition in RMG-I – RMG-I cells, luciferase, cherry-pick, dose response (AID 687027); format: functional, cell-based;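 further: luciferase reporter driven by Pax8 target thyroperoxidase promoter measured by SteadyGlo luminescence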
[13] = blockers of HIV-1 ZM109 envelope-driven cell-cell fusion – HeLa effector, CEM target cells, luciferase, cherry-pick, dose response (AID 652058); format: functional, cell-based;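 further: luciferase signal from HIV-1 Env mediated cell-cell fusion of effector and target cells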
[14] = Luminescence-based counterscreen assay for KLF5 inhibitors: dose response cell-based high throughput screening assay to identify cytotoxic compounds using the IEC-6 intestinal epithelial cell line. [Related pubchem assays: 1700 (Primary screen.), 1834 (Confirmation screen.), 1858 (Summary AID.), 1905 (Counterscreen.)]; format: functional
[15] = blockers of HIV-1 envelope-mediated cell-cell fusion – cherry-pick, dose response (AID 652057); format: functional, cell-based
[16] = off-target signal loss in HeLa-CEM21 co-culture – HeLa F-luc CTL cells, cherry-picked, counter-screen for HIV-1 Env fusion inhibitor project, dose response (AID 652040); format: functional, cell-based;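 further: potency for signal decrease marking cytotoxic or nonspecific inhibition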
[17] = HIV-1 AD8 envelope cell-cell fusion blockers – cherry-pick, dose response (AID 652062); format: functional, cell-based;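 further: luciferase signal from cell-cell fusion driven by HIV-1 clade B AD8 Env; potency is for inhibitors of fusion seen as a drop in luminescence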

Cytochrome P450 3A4, sequence (P08684 whole entry): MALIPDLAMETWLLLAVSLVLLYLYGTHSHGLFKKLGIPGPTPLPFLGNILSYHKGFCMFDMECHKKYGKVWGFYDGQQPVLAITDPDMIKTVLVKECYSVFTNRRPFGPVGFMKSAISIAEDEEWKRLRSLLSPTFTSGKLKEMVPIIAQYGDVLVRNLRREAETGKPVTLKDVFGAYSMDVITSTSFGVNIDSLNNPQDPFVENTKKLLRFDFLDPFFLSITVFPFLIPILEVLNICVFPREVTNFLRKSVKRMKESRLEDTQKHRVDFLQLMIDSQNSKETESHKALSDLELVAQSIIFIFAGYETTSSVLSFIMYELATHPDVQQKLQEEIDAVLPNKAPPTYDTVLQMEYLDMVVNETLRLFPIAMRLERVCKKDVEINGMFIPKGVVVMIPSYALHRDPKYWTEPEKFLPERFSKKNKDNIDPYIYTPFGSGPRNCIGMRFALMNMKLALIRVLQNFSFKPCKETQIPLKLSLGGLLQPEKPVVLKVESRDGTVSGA
ADP-ribosylation factor GTPase-activating protein 1, sequence (Q62848 whole entry): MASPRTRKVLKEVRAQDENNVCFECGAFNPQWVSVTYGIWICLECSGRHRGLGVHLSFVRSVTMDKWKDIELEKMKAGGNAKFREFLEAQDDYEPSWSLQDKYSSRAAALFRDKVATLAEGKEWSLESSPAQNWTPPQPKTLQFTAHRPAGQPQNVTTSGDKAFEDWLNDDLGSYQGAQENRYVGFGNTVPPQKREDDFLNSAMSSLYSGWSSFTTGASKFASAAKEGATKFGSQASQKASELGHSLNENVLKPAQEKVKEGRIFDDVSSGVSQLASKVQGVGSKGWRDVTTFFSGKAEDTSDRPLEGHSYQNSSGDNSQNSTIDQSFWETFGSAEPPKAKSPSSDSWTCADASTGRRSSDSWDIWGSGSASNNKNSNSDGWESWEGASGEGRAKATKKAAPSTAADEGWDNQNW
Paired box protein Pax-8, sequence (Q06710 whole entry, the tested form may be a part): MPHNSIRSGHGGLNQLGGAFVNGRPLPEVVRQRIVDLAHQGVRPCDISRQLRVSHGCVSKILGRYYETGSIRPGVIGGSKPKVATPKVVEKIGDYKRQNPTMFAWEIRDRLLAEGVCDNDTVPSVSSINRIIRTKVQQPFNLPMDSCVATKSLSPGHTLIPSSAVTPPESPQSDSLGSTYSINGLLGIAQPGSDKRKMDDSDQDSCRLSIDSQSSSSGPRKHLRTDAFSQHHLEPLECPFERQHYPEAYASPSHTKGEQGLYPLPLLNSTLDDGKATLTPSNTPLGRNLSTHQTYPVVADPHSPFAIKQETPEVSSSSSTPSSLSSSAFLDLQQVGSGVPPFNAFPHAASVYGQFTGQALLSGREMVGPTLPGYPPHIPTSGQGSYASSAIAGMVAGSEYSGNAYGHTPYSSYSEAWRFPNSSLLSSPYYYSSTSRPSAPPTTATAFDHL

O=C(Nc1ccc(F)cc1)c1nn(-c2ccccc2)c(=O)cc1Cl
AC50 [1]: 11.9 µM (active) | IC50 [2]: 4.16 µM (active) | EC50 (Protein RecA): 8.71 µM (active)

O=C(/C=C/c1c(F)cccc1Cl)N1CCOCC1
EC50 [3]: > 50 µM (active)

Cc1ccc2nc(SCC(=O)N3CCCC3)nc(=O)n2c1
IC50 [4]: 45.2 µM (inactive)

COC(=O)N1[C@H](C)C=C[C@]1(Cc1ccccc1)C(=O)NCc1ccccn1
AC50 (Cytochrome P450 3A4): 3.98 µM (inconclusive)

N#Cc1c(NC(=O)C2CC(c3c(F)cccc3Cl)=NO2)sc2c1CCC2 (stereo not drawn)
IC50 [4]: 43.6 µM (inactive)

Cc1ccc(/C=N/c2ccc(N(C)C)cc2)o1
IC50 [5]: 18.1 µM (active) | EC50 [6]: > 60 µM (not active) | IC50 [7]: > 100 µM (inactive) | EC50 [8]: 1.12 µM (active) | EC50 [9]: 42.3 µM (active) | EC50 [10]: 58 µM (active)

O=C(C[C@H]1C[C@@H]2c3cc(NC(=O)C4CCOCC4)ccc3O[C@@H]2[C@@H](CO)O1)NCc1ccc(Oc2ccccc2)cc1
AC50 [11]: 65.1 µM (active)

COc1cc(/C=N/O)ccc1OCc1ccc(C(=O)O)cc1
EC50 [12]: 1.78 µM (active) | AC50 (Paired box protein Pax-8): 5.79 µM (active) | AC50 [13]: 6.61 µM (active) | IC50 [14]: > 39.8 µM (not active) | AC50 [11]: 25.6 µM (active) | AC50 [15]: 0.351 µM (active) | AC50 [16]: 0.82 µM (active) | AC50 [17]: 1.49 µM (active)

C=C1CCC2C(CC2(C)C)C(=C)CC/C1=N/O (stereo not drawn) [5-HYDROXYIMINOISOCARYOPHYLLENE]
AC50 (Cytochrome P450 3A4): 31.6 µM (inconclusive)
